# From paper PMC3985299, “Single Ascending Dose Safety and Pharmacokinetics of CDRI-97/78: First-in-Human Study of a Novel Antimalarial Drug” (Malaria Research and Treatment, 2014)
# “Also recorded” adds a separate entry of the source.
# Assays:
# [1] = test system: chloroquine sensitive P. berghei; parameters: method as in printed; conditions: chloroquine sensitive P. berghei in mice; background, ref not given; cited from earlier work
# healthy human volunteers = assay: Single ascending dose study: clinical parameters (blood pressure, pulse rate, respiratory rate, corrected QT); format: in vivo; parameters: SBP / DBP: unit not given here; conditions: for DBP / SBP: 2 hours after drug administration; for Diastolic blood pressure: 600 and 700 mg group
# Description: The volunteers after giving informed consent were screened. The screening process was done latest within 1 month of admission for dosing. The volunteers who fulfilled the inclusion/exclusion criteria were admitted in the CPU the night before drug administration. Standardized dinner was served at 9 pm the night prior to dosing. On day 0, baseline blood sample for biochemical and haematological examination and stool and urine samples for routine and microscopy were taken. They received the study drug, according to the randomization sequence, under supervision. The empty packaging was returned to the container. The volunteers received drug as per randomization. Breakfast was given half an hour after drug administration. Subsequently, standardized lunch and dinner were served to the volunteers.
# The subjects were attached to a cardiac monitor and vital HR, BP, ECG, oxygen saturation, and RR were recorded. Corrected QT interval using Fridericia's formula was calculated. Adverse events were assessed at specific time points (0.5, 1, 2, 4, 6, 8, 12, and 24 hrs after medication). Unscheduled monitoring was undertaken whenever it felt necessary. The volunteers were discharged after 24 hrs and they had to return at 48 hrs and on the 7th day for follow-up. At the end of the 7th day, they were said to have completed the study. Routine haematological and biochemical investigations were performed at 0 hr, 24 hrs after drug administration, and on day 7. The study was monitored by a Data Safety Monitoring Board.
# [2] = test system: chloroquine resistant P. falciparum; parameters: method as in printed; conditions: chloroquine resistant P. falciparum in vitro; background, ref not given; cited from earlier work
# [3] = Single oral dose (200 mg) pharmacokinetic study, plasma LC-MS/MS, noncompartmental analysis; format: in vivo, human; conditions: oral 200 mg
# Procedure: For pharmacokinetic (PK) study, eligible participants were admitted and housed in the clinical pharmacology unit an evening prior to the PK study. A standard dinner was served and a fasting condition for at least 10 hrs prior to dosing and 4 hrs after dosing was ensured. A peripheral forearm vein was cannulated for sampling for the PK analysis. 200 mg of the study drug was administered with 300 mL of water. The time of actual dose administration to the nearest minute was recorded. 2.5 mL of blood was collected from the indwelling cannula at 0 (before dose), 0.25, 0.5, 0.75, 1, 1.5, 2, 4, 6, 8, 12, 18, 24, 48, 72, 96, 120, and 144 hrs (after dose). 10 mL of additional blood was collected at 0 (before dose) and 24 hr (after dose) for laboratory parameters for safety assessment and PK control sample. A time window of ±2 minutes was permitted for collecting the post dose samples from the scheduled time for PK analysis. Plasma was separated from blood sample intended for PK analysis, within 1 hour of blood sampling, by centrifugation at 2000 rpm for 10 min at 4°C. Samples were stored at −80°C pending transportation. Heparinised blood samples were transported to the laboratory within 7 days of collection. Quantitative analyses of clinical phase ascending dose and single dose PKs samples were done at GLP lab of Pharmacokinetics and Metabolism Division, CDRI, Lucknow, India. α-Arteether was used as an internal standard and all the analyses were performed as per the published method by Singh et al. 2009 [19]. Acceptance criteria for analytical runs were fixed as per internationally approved guidelines. Data acquisition and quantitation were performed using analyst software version 1.4 (Applied Biosystems, MDS SCIEX Toronto, Canada). PK parameters were estimated by using WinNonlin software (Version 1.5, Pharsight Corporation, Mountain View, CA). Oral data were best fitted in noncompartmental model. The individual plasma concentration-time profiles were subjected to noncompartmental analysis to determine various PK parameters. The PK parameters included the terminal elimination half-life (T 1/2), maximum plasma concentration (C max), time to reach maximum plasma concentration (T max), area under the curve (AUC0–∞), and mean residence time (MRT).
compound,measurement,setting,value
"C=C(c1ccc(OC(C)(C)COC(=O)CCC(=O)O)cc1)C1COC2(OO1)C1CC3CC(C1)CC2C3 (stereo not shown) [CDRI 97/78, Mono[2methyl2[3(1spiro[tricycle[3.3.1.13,7]decane2,3′-[1,2,4]trioxan] 6′-ylethenyl)phenoxy]propyl] ester]",Antimalarial activity,[1],powerful antimalarial activity
same,DBP,healthy human volunteers; 80 mg,73 ± 5.21
same,SBP,healthy human volunteers; 80 mg,112.17 ± 6.24
same,DBP,healthy human volunteers; 160 mg,77.17 ± 8.06
same,SBP,healthy human volunteers; 160 mg,119.5 ± 5.17
same,DBP,healthy human volunteers; 320 mg,82.33 ± 4.68
same,SBP,healthy human volunteers; 320 mg,127.5 ± 6.38
same,DBP,healthy human volunteers; 400 mg,71.33 ± 8.19
same,SBP,healthy human volunteers; 400 mg,111.83 ± 7.91
same,DBP,healthy human volunteers; 500 mg,71.83 ± 7.81
same,SBP,healthy human volunteers; 500 mg,114.5 ± 8.34
same,DBP,healthy human volunteers; 600 mg,66.5 ± 6.53
same,SBP,healthy human volunteers; 600 mg,112.83 ± 6.18
same,DBP,healthy human volunteers; 700 mg,69 ± 8.48
same,SBP,healthy human volunteers; 700 mg,115.5 ± 2.12
same,"Corrected QT interval (Fridericia), change within treatment groups",healthy human volunteers; 80-700 mg groups,no statistically or clinically significant difference; also recorded: No clinically meaningful alteration
same,Diastolic blood pressure,healthy human volunteers; 0 hours,76.87 ± 8.74 mmHg
same,Diastolic blood pressure,healthy human volunteers; 0.5 hours,78.37 ± 8.86 mmHg
same,Diastolic blood pressure,healthy human volunteers; 1 hours,79.25 ± 13.46 mmHg
same,Diastolic blood pressure,healthy human volunteers; 2 hours,67.12 ± 6.49 mmHg
same,Diastolic blood pressure,healthy human volunteers; 4 hours,73.12 ± 12.32 mmHg
same,Diastolic blood pressure,healthy human volunteers; 6 hours,75.87 ± 8.11 mmHg
same,Diastolic blood pressure,healthy human volunteers; 8 hours,74 ± 11 mmHg
same,Diastolic blood pressure,healthy human volunteers; 12 hours,75 ± 10.03 mmHg
same,"Pulse rate, respiratory rate and systolic blood pressure, change compared to baseline","healthy human volunteers; any time point, all treatment groups",None of the treatment groups demonstrated a significant alteration
same,Antimalarial activity,[2],powerful antimalarial activity
same,Absorption,[3],rapidly absorbed
same,Plasma concentration of parent molecule,[3]; most of the volunteers,below the limit of quantitation
